Data as given in patent US20150259371A1, “METHODS AND COMPOUNDS FOR INHIBITING GLYCOSYLTRANSFERASES” (SIMON FRASER UNIVERSITY, priority 2010, published 2015).

How the values were obtained:
[1] = test system: O-GlcNAc levels in primary CLL cells; assay: Western blot of O-GlcNAc levels in primary CLL cells; type: cell-based; settings: 0-250 μM, 5 days
Description: (§1) Primary CLL cells, obtained from Dr. David Spaner at the University of Toronto, were tested for their response to Ac-5SGlcNAc (9). Cells were plated at a confluency of 1 million cells/mL, and treated with between 0-250 μM 9, in the presence or absence of cytokine (1000 U/mL IL-2 and 1 μg/mL Resiquimod) stimulation to mimic cancer progression. Cells were observed over the course of 5 days, and harvested after this time into SDS-PAGE loading buffer before being subjected to western blotting.

[2] = test system: Primary CLL cells; assay: Primary CLL cells, proliferation and toxicity with or without cytokine stimulation; type: cell-based; settings: 5 days
Description: as §1

[3] = test system: O-GlcNAc on nup62; assay: O-GlcNAc on nup62 immunoprecipitated from treated cells, chemoenzymatic labelling; type: cell-based; settings: 250 μM, 24 h; streptavidin probe
Description: Immunoprecipitation of nup62: nup62 was immunoprecipitated from COS-7 cell lysates using the procedure described in Ref.^9. Following washing of the beads, and prior to elution, nup62 was incubated in the absence or presence of BtGH84 (overexpressed and purified as described previously^43) shaking for 2 h at room temperature, which would allow O-GlcNAc levels on nup62 to be assessed. nup62 was subsequently eluted from the beads upon addition of SDS loading buffer and boiled for 10 min.
Click-iT® kit for labelling O-GlcNAc residues: The ‘Click-iT® O-GlcNAc Enzymatic Labeling System’ was purchased from Invitrogen, and essentially the manufacturer's protocol was followed with some alterations. nup62 was immunoprecipitated and eluted from the beads in 1% SDS in 20 mM Hepes, pH 7.9, and boiled for 10 min; this was used as the substrate for the chemoenzymatic labeling using UDP-GalNAz and GalTl. Following the overnight reaction, biotinylated phosphine (in 20% DMF) was added at a final concentration of 50 μM and incubated at 37° C. for […]. The reaction was stopped by the addition of SDS-PAGE loading buffer, and the samples were boiled for 10 min. Samples were run on a gel and transferred. The same procedure as described for the western blots was used, starting from the second blocking step. Blots were then probed with HRP-conjugated streptavidin (Pierce). […]

[4] = test system: N-glycosylation in COS-7 cells; assay: Lectin blots of glycans in treated COS-7 cells; type: cell-based, African green monkey; settings: COS-7, 0-1000 μM, 24 h
Description: Westernlectin blots: Samples were run on 10% SDS polyacrylamide gels and transferred onto nitrocellulose membranes (Biorad). Membranes were blocked for 1 h in PBS containing 0.1% Tween-20 (PBS-T) containing 1% (unless otherwise stated) bovine serum albumin (BSA), and probed with the appropriate primary antibody or lectin in 1% BSA in PBS-T overnight at 4° C. Blots were washed for 1 hr with PBS-T, and blocked for a further 30 min with 1% BSA in PBS-T at room temperature. They were then probed with the appropriate horseradish peroxidise (HRP)-conjugated secondary antibodyprobe in 1% BSA in PBS-T at room temperature for 1 h, followed by washing in PBS-T for 1 h. […]
Antibodieslectins: O-GlcNAc levels were assessed primarily using CTD110.6 (Covance), but RL2 (Abcam) and HGAC85 (Abcam) were also tested. […] OGA levels were assessed using a polyclonal anti-OGA antibody which was a kind gift from Dr. Gerald Hart and OGT levels using H-300 (Santa Cruz Biotechnology). nup62 was probed using mAb 414 (Covance). […]
To assess whether cell surface glycosylation could be affected through changes in UDP-GlcNAc availability or inhibition of GlcNAc transferases within the secretory pathway, we treated COS-7 cells with a range of Ac-5SGlcNAc concentrations and evaluated the effect on various glycans using lectin blots. […]

[5] = test system: N-glycosylation of IgG from mouse hybridoma cell line; assay: Lectin blots of IgG immunoprecipitated from treated mouse hybridoma cells; type: cell-based; settings: 0-1000 μM, 24 h
[6] = test system: cell lines examined; assay: Qualitative observation of cell morphology and proliferation in treated cell lines; type: cell-based; settings: at the doses assayed
Description: Despite OGA levels continuing to drop and OGT levels rising over 5 days of dosing, O-GlcNAc levels remained low and unchanged after 24 hours (FIG. 2C).
Cellular responses to Ac-5SGlcNAc (9) treatment and consequent decreases in O-GlcNAc levels were evaluated. […] We quantitatively evaluated cell proliferation and established growth curves over the course of 5 days in both CHO and EMEG32 heterozygous mouse embryonic fibroblast cells treated with 50 μM Ac-5SGlcNAc (9), 50 μM Ac-GlcNAc (G), or vehicle (FIGS. 5A-B).

CC(=O)NC1C(OC(C)=O)SC(COC(C)=O)C(OC(C)=O)C1OC(C)=O [Compound 9, N-Acetyl-1,3,4,6-tetra-O-acetyl-α-D-5-thio-glucosamine]
O-GlcNAc levels [1]: O-GlcNAc levels were decreased in a dose-dependent fashion
toxicity to cells ([2]; 0-250 μM, unstimulated or stimulated): not toxic to either unstimulated or stimulated cells
proliferation of cytokine-stimulated cells ([2]; 50 μM and higher, IL-2 and Resiquimod stimulation): the proliferation that was obvious in untreated stimulated cells was absent
O-GlcNAc modification of immunoprecipitated nup62 [3]: shows almost no modification
glycosylation by lectin blots (ConA, GNA, PHA-L, SNA, MAA) [4]: All lectins tested showed no change in glycosylation
GNA and ConA reactivity of hybridoma IgG [5]: slight decrease in GNA and ConA reactivity when using a very high dose
changes in cell morphology or rate of proliferation [6]: no apparent changes in cell morphology or rate of proliferation
